In patent US11872202B2, “Pleuromutilin cinnamic acid ester compounds with activities against antibiotic-resistant infections” (SHAANXI UNIVERSITY OF SCIENCE AND TECHNOLOGY, priority 2021, dated 2024):
≈ marks a conversion by molar mass, not a printed value. Where two headings read alike, the source gives them in different places.

Experiments:
Format in all cases: cell-based
[1] = test system: the different bacteria tested; experiment: MIC, micro-broth dilution method, overall comparison over all strains; conditions: statement in words from Table 1
Description: (§1) The minimum inhibitory concentration (MIC) of pleuromutilin cinnamate easters and their starting materials was tested by a micro-broth dilution method, with retamoline, vornimulin and tiamulin as positive controls.
(§2) The experimental strains included Gram-positive bacteria: Methicillin-sensitive Staphylococcus epidermidis ATCC12228, Staphylococcus aureus ATCC29213 and ATCC25923, and Methicillin-resistant Staphylococcus aureus ATCC33591; Gram-negative bacteria: Acinetobacter baumannii ATCC19606 and E. coli Bacillus ATCC25922 (the strains used were from the American type culture collection (ATCC)).

[2] = In vitro cytotoxicity, CCK-8 method; conditions: human, read-out: median inhibitory concentration (IC50), cytotoxicity
Description: The in vitro cytotoxicity of pleuromutilin easters was determined by a CCK-8 method (the kit used was purchased from Shanghai Xige Biotechnology Co., Ltd.). Take healthy HepG2, HEK293 and A549 cell culture fluids (the cells used were from the American type culture collection (ATCC), and the used cell culture fluids were purchased from Thermo Fisher Scientific (China) Co., Ltd.), inoculate in a sterile 96-well cell culture plate, 180 μL/well, ensure that the number of cells is 1*10^4/well, place in a 37° C. CO2 incubator with a volume fraction of 5%, and culture for 24 h until the cells completely adhered. Add the test and control solutions, 20 µL per well, set 6 duplicate wells in parallel, and incubate at 37° C. in a CO2 incubator with a volume fraction of 5% at 37° C. for 24 h, and observe the cells under a microscope. Add 20 μL of 5 g/L CCK-8 solution to each well, and continue to culture for 4 h. The culture was terminated, the culture medium in the wells was gently aspirated, 100 μL of dimethyl sulfoxide was added to each well, and the wells were shaken at low speed for 10 min on a shaker to fully dissolve the crystals. The absorbance value was measured, and the half inhibitory concentration (IC50) was then calculated. The cytotoxicity to HepG2, HEK293 and A549 cells was evaluated according to the half inhibitory concentration (IC50).

[3] = test system: Methicillin-sensitive Staphylococcus epidermidis ATCC12228; experiment: MIC, micro-broth dilution method; conditions: for inhibitory effect compared with the three tested positive controls: methicillin-sensitive Staphylococcus epidermidis, statement in words from Table 1
Description: as §1, §2

[4] = test system: Escherichia coli ATCC25922; experiment: MIC, micro-broth dilution method
Description: as §1, §2

[5] = test system: Staphylococcus aureus ATCC29213; experiment: MIC, micro-broth dilution method
Description: as §1, §2

[6] = test system: Acinetobacter baumannii ATCC19606; experiment: MIC, micro-broth dilution method; conditions: for inhibition compared with tiamulin: statement in words from Table 1
Description: as §1, §2

[7] = test system: Methicillin-resistant Staphylococcus aureus ATCC33591; experiment: MIC, micro-broth dilution method
Description: as §1, §2

[8] = test system: Staphylococcus aureus ATCC25923; experiment: MIC, micro-broth dilution method
Description: as §1, §2

[9] = Methicillin-sensitive Staphylococcus epidermidis ATCC12228, 37° C., 20-22 h, read-out: Minimum inhibitory concentration
[10] = Escherichia coli ATCC25922, 37° C., 20-22 h, read-out: Minimum inhibitory concentration
[11] = Staphylococcus aureus ATCC29213, 37° C., 20-22 h, read-out: Minimum inhibitory concentration
[12] = Acinetobacter baumannii ATCC19606, 37° C., 20-22 h, read-out: Minimum inhibitory concentration
[13] = Methicillin-resistant Staphylococcus aureus ATCC33591, 37° C., 20-22 h, read-out: Minimum inhibitory concentration
[14] = Staphylococcus aureus ATCC25923, 37° C., 20-22 h, read-out: Minimum inhibitory concentration
[15] = Staphylococcus epidermidis, ATCC12228, read-out: Minimum inhibitory concentration
[16] = Escherichia coli, ATCC25922, read-out: Minimum inhibitory concentration
[17] = Staphylococcus aureus, ATCC29213, read-out: Minimum inhibitory concentration
[18] = Acinetobacter baumannii, ATCC19606, read-out: Minimum inhibitory concentration
[19] = Staphylococcus aureus, ATCC33591, read-out: Minimum inhibitory concentration
[20] = Staphylococcus aureus, ATCC25923, read-out: Minimum inhibitory concentration

Structure (SMILES)	inhibitory activity compared with the three tested positive controls [1]	IC50 at 24 h ([2]; A549 cells)	IC50 at 24 h ([2]; HEK293 cells)	IC50 at 24 h ([2]; HepG2 cells)	MIC [3, 9]	inhibitory effect compared with the three tested positive controls [3]	MIC [4, 10]	MIC [5, 11]	MIC [6, 12]	inhibition compared with tiamulin ([6]; Acinetobacter baumannii)	MIC [7, 13]	MIC [8, 14]	MIC [3, 15]	MIC [4, 16]	MIC [5, 17]	MIC [6, 18]	MIC [7, 19]	MIC [8, 20]
C=C[C@]1(C)C[C@@H](OC(=O)COC(=O)/C=C/c2ccc(N(C)C)cc2)[C@]2(C)[C@H](C)CC[C@]3(CCC(=O)[C@H]32)[C@@H](C)[C@@H]1O [Compound 10, (E)-2-(((3aR,4R,5R,8S,9R,12R)-8-hydroxy-4,7,9,12-tetramethyl-3-oxo-7-vinyldecahydro-4,9a-propanocyclopenta[8]annulen-5-yl)oxy)-2-oxoethyl 3-(4-(dimethylamino)phenyl)acrylate]	better or equal to that of the three tested positive controls	> 200 µM	34.6 µM	> 200 µM	1 µg/mL (≈ 1.81 µM)	better than that of the positive controls	16 µg/mL (≈ 29 µM)	2 µg/mL (≈ 3.63 µM)	32 µg/mL (≈ 58 µM)	as much as tiamulin	2 µg/mL (≈ 3.63 µM)	1 µg/mL (≈ 1.81 µM)						
C=C[C@]1(C)C[C@@H](OC(=O)CSCCN(CC)CC)[C@]2(C)[C@H](C)CC[C@]3(CCC(=O)[C@H]32)[C@@H](C)[C@@H]1O [Tiamulin, reference compound]		> 200 µM	84.9 µM	27.1 µM	16 µg/mL (≈ 32.4 µM)		128 µg/mL (≈ 259 µM)	256 µg/mL (≈ 518 µM)	64 µg/mL (≈ 130 µM)		128 µg/mL (≈ 259 µM)	64 µg/mL (≈ 130 µM)						
C=C[C@]1(C)C[C@@H](OC(=O)CS[C@@H]2C[C@H]3CC[C@@H](C2)N3C)[C@]2(C)[C@H](C)CC[C@]3(CCC(=O)[C@H]32)[C@@H](C)[C@@H]1O [Retapamulin, reference compound]													32 µg/mL (≈ 61.8 µM)	32 µg/mL (≈ 61.8 µM)	4 µg/mL (≈ 7.73 µM)	16 µg/mL (≈ 30.9 µM)	32 µg/mL (≈ 61.8 µM)	4 µg/mL (≈ 7.73 µM)
C=C[C@]1(C)C[C@@H](OC(=O)COC(=O)/C=C/c2cc(Br)ccc2F)[C@]2(C)[C@H](C)CC[C@]3(CCC(=O)[C@H]32)[C@@H](C)[C@@H]1O [Compound 9, (E)-2-(((3aR,4R,5R,8S,9R,12R)-8-hydroxy-4,7,9,12-tetramethyl-3-oxo-7-vinyldecahydro-4,9a-propanocyclopenta[8]annulen-5-yl)oxy)-2-oxoethyl 3-(5-bromo-2-fluorophenyl)acrylate]					64 µg/mL (≈ 106 µM)		64 µg/mL (≈ 106 µM)	32 µg/mL (≈ 52.8 µM)	128 µg/mL (≈ 211 µM)		64 µg/mL (≈ 106 µM)	16 µg/mL (≈ 26.4 µM)						
C=C[C@]1(C)C[C@@H](OC(=O)COC(=O)/C=C/c2ccc([N+](=O)[O-])cc2)[C@]2(C)[C@H](C)CC[C@]3(CCC(=O)[C@H]32)[C@@H](C)[C@@H]1O [Compound 1, (E)-2-(((3aR,4R,5R,8S,9R,12R)-8-hydroxy-4,7,9,12-tetramethyl-3-oxo-7-vinyldecahydro-4,9a-propanocyclopenta[8]annulen-5-yl)oxy)-2-oxoethyl 3-(4-nitrophenyl)acrylate]		> 200 µM	> 200 µM	> 200 µM	2 µg/mL (≈ 3.61 µM)	better than that of the positive controls	32 µg/mL (≈ 57.8 µM)	2 µg/mL (≈ 3.61 µM)	64 µg/mL (≈ 116 µM)	as much as tiamulin	4 µg/mL (≈ 7.22 µM)	8 µg/mL (≈ 14.4 µM)						
C=C[C@]1(C)C[C@@H](OC(=O)COC(=O)/C=C/c2cccc(Cl)c2)[C@]2(C)[C@H](C)CC[C@]3(CCC(=O)[C@H]32)[C@@H](C)[C@@H]1O [Compound 2, (E)-2-(((3aR,4R,5R,8S,9R,12R)-8-hydroxy-4,7,9,12-tetramethyl-3-oxo-7-vinyldecahydro-4,9a-propanocyclopenta[8]annulen-5-yl)oxy)-2-oxoethyl 3-(3-chlorophenyl)acrylate]					8 µg/mL (≈ 14.7 µM)	better than that of the positive controls	64 µg/mL (≈ 118 µM)	32 µg/mL (≈ 58.9 µM)	128 µg/mL (≈ 236 µM)		32 µg/mL (≈ 58.9 µM)	16 µg/mL (≈ 29.5 µM)						
C=C[C@]1(C)C[C@@H](OC(=O)COC(=O)/C=C/c2ccc(C(F)(F)F)cc2F)[C@]2(C)[C@H](C)CC[C@]3(CCC(=O)[C@H]32)[C@@H](C)[C@@H]1O [Compound 19, (E)-2-(((3aR,4R,5R,8S,9R,12R)-8-hydroxy-4,7,9,12-tetramethyl-3-oxo-7-vinyldecahydro-4,9a-propanocyclopenta[8]annulen-5-yl)oxy)-2-oxoethyl 3-(2-fluoro-4-(trifluoromethyl)phenyl)acrylate]					16 µg/mL (≈ 26.9 µM)		128 µg/mL (≈ 215 µM)	16 µg/mL (≈ 26.9 µM)	> 256 µg/mL		64 µg/mL (≈ 108 µM)	8 µg/mL (≈ 13.5 µM)						
C=C[C@]1(C)C[C@@H](OC(=O)CSC(C)(C)CNC(=O)[C@H](N)C(C)C)[C@]2(C)[C@H](C)CC[C@]3(CCC(=O)[C@H]32)[C@@H](C)[C@@H]1O [Valnemulin, reference compound]													64 µg/mL (≈ 113 µM)	16 µg/mL (≈ 28.3 µM)	2 µg/mL (≈ 3.54 µM)	2 µg/mL (≈ 3.54 µM)	> 256 µg/mL	4 µg/mL (≈ 7.08 µM)
C=C[C@]1(C)C[C@@H](OC(=O)COC(=O)/C=C/c2ccc(OC)cc2)[C@]2(C)[C@H](C)CC[C@]3(CCC(=O)[C@H]32)[C@@H](C)[C@@H]1O [Compound 4, (E)-2-(((3aR,4R,5R,8S,9R,12R)-8-hydroxy-4,7,9,12-tetramethyl-3-oxo-7-vinyldecahydro-4,9a-propanocyclopenta[8]annulen-5-yl)oxy)-2-oxoethyl 3-(4-methoxyphenyl)acrylate]		50.8 µM	90.2 µM	83.7 µM	2 µg/mL (≈ 3.71 µM)	better than that of the positive controls	32 µg/mL (≈ 59.4 µM)	8 µg/mL (≈ 14.9 µM)	> 256 µg/mL		16 µg/mL (≈ 29.7 µM)	4 µg/mL (≈ 7.43 µM)						
C=C[C@]1(C)C[C@@H](OC(=O)COC(=O)/C=C/c2cccc(C#N)c2)[C@]2(C)[C@H](C)CC[C@]3(CCC(=O)[C@H]32)[C@@H](C)[C@@H]1O [Compound 5, (E)-2-(((3aR,4R,5R,8S,9R,12R)-8-hydroxy-4,7,9,12-tetramethyl-3-oxo-7-vinyldecahydro-4,9a-propanocyclopenta[8]annulen-5-yl)oxy)-2-oxoethyl 3-(3-cyanophenyl)acrylate]		> 200 µM	29.2 µM	78.5 µM	2 µg/mL (≈ 3.75 µM)	better than that of the positive controls	64 µg/mL (≈ 120 µM)	8 µg/mL (≈ 15 µM)	128 µg/mL (≈ 240 µM)		16 µg/mL (≈ 30 µM)	2 µg/mL (≈ 3.75 µM)						
